Experimental data: patent US20090123543A1, “PHARMACEUTICAL COMPOSITIONS” (priority 2006, published 2009)

Assay: Comparative physical (blend) properties of valsartan and valsartan granules
Type: physicochemical
Method: Valsartan was added to molten Lutrol F127 (at about 60-65° C.) under continuous mixing till a uniform semi-solid mixture was obtained. Weighed quantity of microcrystalline cellulose was added to the molten semi-solid mixture under continuous mixing. The blend was then allowed to cool to room temperature and the cooled mass was crushed and passed through 20# sieve.

CCCCC(=O)N(Cc1ccc(-c2ccccc2-c2nnn[nH]2)cc1)[C@H](C(=O)O)C(C)C [Valsartan]
Bulk density (blend property): 0.12 g/mL
Flow (flow through funnel/orifice): as valsartan did not flow
